Measurements published in ChEMBL document CHEMBL1795286, “A concise synthesis and antimicrobial activities of 3-polyamino-23,24-bisnorcholanes as steroid-polyamine conjugates” (2011).

Tests used:
Staphylococcus aureus [1] = test: Antimicrobial activity against Staphylococcus aureus ATCC 6538P after 18 hrs by twofold agar dilution method; format: functional
Staphylococcus aureus [2] = test: Antimicrobial activity against Staphylococcus aureus ATCC 25923 after 18 hrs by twofold agar dilution method; format: functional; settings: ATCC 25923, 18 h, read-out: MIC
Staphylococcus aureus [3] = test: Antimicrobial activity against Staphylococcus aureus giorgio after 18 hrs by twofold agar dilution method; format: functional
Staphylococcus aureus [4] = test: Antimicrobial activity against Staphylococcus aureus 77 after 18 hrs by twofold agar dilution method; format: functional; settings: Staphylococcus aureus, 77, 18 h; read-out: MIC
Staphylococcus aureus [5] = test: Antimicrobial activity against Staphylococcus aureus 241 after 18 hrs by twofold agar dilution method; format: functional; settings: Staphylococcus aureus, 241, 18 h
[6] = test system: Staphylococcus epidermidis; test: Antimicrobial activity against Staphylococcus epidermidis 887E after 18 hrs by twofold agar dilution method; format: functional
Enterococcus faecalis = test: Antimicrobial activity against Enterococcus faecalis ATCC 29212 after 18 hrs by twofold agar dilution method; format: functional; settings: ATCC 29212, 18 h
Escherichia coli [7] = test: Antimicrobial activity against Escherichia coli ATCC 25922 after 18 hrs by twofold agar dilution method; format: functional; settings: ATCC 25922, 18 h
Escherichia coli [8] = test: Antimicrobial activity against Escherichia coli ATCC 10536 after 18 hrs by twofold agar dilution method; format: functional; settings: ATCC 10536, 18 h
Escherichia coli [9] = test: Antimicrobial activity against Escherichia coli 3190Y after 18 hrs by twofold agar dilution method; format: functional
Escherichia coli [10] = test: Antimicrobial activity against Escherichia coli 851E after 18 hrs by twofold agar dilution method; format: functional
Salmonella typhimurium [11] = test: Antimicrobial activity against Salmonella Typhimurium ATCC 14028 after 18 hrs by two-fold agar dilution method; format: functional, Salmonella enterica subsp. enterica serovar Typhimurium; settings: Salmonella enterica, ATCC 14028, 18 h
Salmonella typhimurium [12] = test: Antimicrobial activity against Salmonella typhimurium ATCC 13311 after 18 hrs by twofold agar dilution method; format: functional, Salmonella enterica subsp. enterica serovar Typhimurium; settings: Salmonella enterica, ATCC 13311, 18 h
Klebsiella pneumoniae = test: Antimicrobial activity against Klebsiella pneumoniae 2011E after 18 hrs by twofold agar dilution method; format: functional
Moraxella catarrhalis [13] = test: Antimicrobial activity against Moraxella catarrhalis 25240 after 18 hrs by twofold agar dilution method; format: functional; settings: Moraxella catarrhalis, 25240, 18 h
Moraxella catarrhalis [14] = test: Antimicrobial activity against Moraxella catarrhalis C2431 after 18 hrs by twofold agar dilution method; format: functional; settings: C2431, 18 h
Proteus vulgaris = test: Antimicrobial activity against Proteus vulgaris 6059 after 18 hrs by twofold agar dilution method; format: functional; settings: Proteus vulgaris, 6059, 18 h
Morganella morganii = test: Antimicrobial activity against Morganella morganii 1375E after 18 hrs by twofold agar dilution method; format: functional
Citrobacter freundii = test: Antimicrobial activity against Citrobacter freundii 8090 after 18 hrs by twofold agar dilution method; format: functional; settings: Citrobacter freundii, 8090, 18 h
Citrobacter koseri = test: Antimicrobial activity against Citrobacter diversus 2046 after 18 hrs by twofold agar dilution method; format: functional; settings: Citrobacter koseri, 2046, 18 h
Enterobacter cloacae [15] = test: Antimicrobial activity against Enterobacter cloacae ATCC 27508 after 18 hrs by twofold agar dilution method; format: functional; settings: ATCC 27508, 18 h
Enterobacter cloacae [16] = test: Antimicrobial activity against Enterobacter cloacae P99 after 18 hrs by twofold agar dilution method; format: functional; settings: P99, 18 h
Serratia marcescens [17] = test: Antimicrobial activity against Serratia marcescens ATCC 27117 after 18 hrs by twofold agar dilution method; format: functional; settings: ATCC 27117, 18 h
Serratia marcescens [18] = test: Antimicrobial activity against Serratia marcescens 1826E after 18 hrs by twofold agar dilution method; format: functional
[19] = test system: Acinetobacter calcoaceticus; test: Antimicrobial activity against Acinetobacter calcoaceticus ATCC 15473 after 18 hrs by twofold agar dilution method; format: functional; settings: ATCC 15473, 18 h
Micrococcus luteus = test: Antimicrobial activity against Micrococcus luteus ATCC 9341 after 18 hrs by twofold agar dilution method; format: functional; settings: ATCC 9341, 18 h
Bacillus cereus = test: Antimicrobial activity against Bacillus cereus ATCC 27348 after 18 hrs by twofold agar dilution method; format: functional; settings: ATCC 27348, 18 h
Bacillus subtilis = test: Antimicrobial activity against Bacillus subtilis ATCC 6633 after 18 hrs by twofold agar dilution method; format: functional; settings: ATCC 6633, 18 h
Bacillus licheniformis = test: Antimicrobial activity against Bacillus licheniformis EMR after 18 hrs by twofold agar dilution method; format: functional
Pseudomonas aeruginosa = test: Antimicrobial activity against Pseudomonas aeruginosa 6065Y after 18 hrs by twofold agar dilution method; format: functional
Klebsiella aerogenes = test: Antimicrobial activity against Klebsiella aerogenes harboring beta-lactamase SHV-1 1976E mutant after 18 hrs by twofold agar dilution method; format: functional

Compound | MIC (Staphylococcus aureus [1]) [mg/L] | MIC (Staphylococcus aureus [2]) [mg/L] | MIC (Staphylococcus aureus [3]) [mg/L] | MIC (Staphylococcus aureus [4]) [mg/L] | MIC (Escherichia coli [10]) [mg/L] | MIC (Salmonella typhimurium [11]) [mg/L] | MIC (Salmonella typhimurium [12]) [mg/L] | MIC (Klebsiella pneumoniae) [mg/L] | MIC (Proteus vulgaris) [mg/L] | MIC (Morganella morganii) [mg/L] | MIC (Citrobacter freundii) [mg/L] | MIC (Citrobacter koseri) [mg/L] | MIC (Enterobacter cloacae [15]) [mg/L] | MIC (Enterobacter cloacae [16]) [mg/L] | MIC (Serratia marcescens [17]) [mg/L] | MIC (Serratia marcescens [18]) [mg/L] | MIC [19] [mg/L] | MIC (Bacillus subtilis) [mg/L] | MIC (Pseudomonas aeruginosa) [mg/L] | MIC (Klebsiella aerogenes) [mg/L] | further results
C[C@H](CO)[C@H]1CC[C@H]2[C@@H]3CC[C@@H]4C[C@@H](NCCCNCCCCNCCCN)CC[C@]4(C)[C@H]3CC[C@]12C.Cl.Cl.Cl.Cl | 1 | 16 | 4 | 2 | > 32 | > 32 | > 32 | > 32 | > 32 | > 32 | > 32 | > 32 | > 32 | > 32 | > 32 | > 32 | > 32 | 2 | > 32 | > 32 | MIC (Staphylococcus aureus [5]; read-out: MIC): 2 mg/L; MIC ([6]; read-out: MIC): 4 mg/L; MIC (Enterococcus faecalis; read-out: MIC): 32 mg/L; MIC (Escherichia coli [7]; read-out: MIC): 32 mg/L; MIC (Escherichia coli [8]; read-out: MIC): 32 mg/L; MIC (Escherichia coli [9]; read-out: MIC): 32 mg/L; MIC (Moraxella catarrhalis [13]): > 32 mg/L; MIC (Moraxella catarrhalis [14]): > 32 mg/L; MIC (Micrococcus luteus; read-out: MIC): 2 mg/L; MIC (Bacillus cereus; read-out: MIC): < 32 mg/L; MIC (Bacillus licheniformis): > 32 mg/L
C[C@H](CO)[C@H]1CC[C@H]2[C@@H]3CC[C@@H]4C[C@H](NCCCNCCCCN)CC[C@]4(C)[C@H]3CC[C@]12C.Cl.Cl.Cl | 32 | 32 | 32 | 32 | > 32 | > 32 | > 32 | > 32 | > 32 | > 32 | > 32 | > 32 | > 32 | > 32 | > 32 | > 32 | > 32 | 32 | > 32 | > 32 | MIC (Staphylococcus aureus [5]): > 32 mg/L; MIC [6]: > 32 mg/L; MIC (Enterococcus faecalis): > 32 mg/L; MIC (Escherichia coli [7]): > 32 mg/L; MIC (Escherichia coli [8]; read-out: MIC): < 32 mg/L; MIC (Escherichia coli [9]; read-out: MIC): < 32 mg/L; MIC (Moraxella catarrhalis [13]): > 32 mg/L; MIC (Moraxella catarrhalis [14]): > 32 mg/L; MIC (Micrococcus luteus): > 32 mg/L; MIC (Bacillus cereus): > 32 mg/L; MIC (Bacillus licheniformis; read-out: MIC): < 32 mg/L
C[C@H](CO)[C@H]1CC[C@H]2[C@@H]3CC[C@H]4C[C@@H](NCCCNCCCCN)CC[C@]4(C)[C@H]3CC[C@]12C.Cl.Cl.Cl | 8 | 16 | 16 | 32 | > 32 | > 32 | > 32 | > 32 | > 32 | > 32 | > 32 | > 32 | > 32 | > 32 | > 32 | > 32 | > 32 | 8 | > 32 | > 32 | MIC (Staphylococcus aureus [5]; read-out: MIC): 8 mg/L; MIC ([6]; read-out: MIC): 16 mg/L; MIC (Enterococcus faecalis): > 32 mg/L; MIC (Escherichia coli [7]; read-out: MIC): < 32 mg/L; MIC (Escherichia coli [8]; read-out: MIC): < 32 mg/L; MIC (Escherichia coli [9]): > 32 mg/L; MIC (Moraxella catarrhalis [13]; read-out: MIC): 32 mg/L; MIC (Moraxella catarrhalis [14]; read-out: MIC): 32 mg/L; MIC (Micrococcus luteus; read-out: MIC): 16 mg/L; MIC (Bacillus cereus): > 32 mg/L; MIC (Bacillus licheniformis): > 32 mg/L
C[C@H](CO)[C@H]1CC[C@H]2[C@@H]3CC[C@H]4C[C@H](NCCCNCCCCN)CC[C@]4(C)[C@H]3CC[C@]12C.Cl.Cl.Cl | 4 | 16 | 8 | 4 | > 32 | > 32 | > 32 | > 32 | > 32 | > 32 | > 32 | > 32 | > 32 | > 32 | > 32 | > 32 | > 32 | 8 | > 32 | > 32 | MIC (Staphylococcus aureus [5]; read-out: MIC): 4 mg/L; MIC ([6]; read-out: MIC): 16 mg/L; MIC (Enterococcus faecalis; read-out: MIC): 32 mg/L; MIC (Escherichia coli [7]; read-out: MIC): 32 mg/L; MIC (Escherichia coli [8]; read-out: MIC): 32 mg/L; MIC (Escherichia coli [9]): > 32 mg/L; MIC (Moraxella catarrhalis [13]; read-out: MIC): < 32 mg/L; MIC (Moraxella catarrhalis [14]): > 32 mg/L; MIC (Micrococcus luteus; read-out: MIC): 8 mg/L; MIC (Bacillus cereus): > 32 mg/L; MIC (Bacillus licheniformis; read-out: MIC): 16 mg/L
C[C@H](CO)[C@H]1CC[C@H]2[C@@H]3[C@H](O)C[C@H]4C[C@@H](NCCCNCCCCN)CC[C@]4(C)[C@H]3CC[C@]12C.Cl.Cl.Cl | 16 | < 32 | 32 | 16 | > 32 | > 32 | > 32 | > 32 | > 32 | > 32 | > 32 | > 32 | > 32 | > 32 | > 32 | > 32 | > 32 | 16 | > 32 | > 32 | MIC (Staphylococcus aureus [5]; read-out: MIC): 16 mg/L; MIC ([6]; read-out: MIC): 32 mg/L; MIC (Enterococcus faecalis): > 32 mg/L; MIC (Escherichia coli [7]; read-out: MIC): < 32 mg/L; MIC (Escherichia coli [8]): > 32 mg/L; MIC (Escherichia coli [9]; read-out: MIC): < 32 mg/L; MIC (Moraxella catarrhalis [13]; read-out: MIC): < 32 mg/L; MIC (Moraxella catarrhalis [14]): > 32 mg/L; MIC (Micrococcus luteus; read-out: MIC): 16 mg/L; MIC (Bacillus cereus): > 32 mg/L; MIC (Bacillus licheniformis; read-out: MIC): < 32 mg/L
